{"source": "ChEMBL document CHEMBL1201862", "about": "“PubChem BioAssay data set” (2004)", "key": {"[1]": {"target": "T1, Histone-lysine N-methyltransferase NSD2 (Homo sapiens, UniProt O96028)", "T1 sequence (O96028 whole entry)": "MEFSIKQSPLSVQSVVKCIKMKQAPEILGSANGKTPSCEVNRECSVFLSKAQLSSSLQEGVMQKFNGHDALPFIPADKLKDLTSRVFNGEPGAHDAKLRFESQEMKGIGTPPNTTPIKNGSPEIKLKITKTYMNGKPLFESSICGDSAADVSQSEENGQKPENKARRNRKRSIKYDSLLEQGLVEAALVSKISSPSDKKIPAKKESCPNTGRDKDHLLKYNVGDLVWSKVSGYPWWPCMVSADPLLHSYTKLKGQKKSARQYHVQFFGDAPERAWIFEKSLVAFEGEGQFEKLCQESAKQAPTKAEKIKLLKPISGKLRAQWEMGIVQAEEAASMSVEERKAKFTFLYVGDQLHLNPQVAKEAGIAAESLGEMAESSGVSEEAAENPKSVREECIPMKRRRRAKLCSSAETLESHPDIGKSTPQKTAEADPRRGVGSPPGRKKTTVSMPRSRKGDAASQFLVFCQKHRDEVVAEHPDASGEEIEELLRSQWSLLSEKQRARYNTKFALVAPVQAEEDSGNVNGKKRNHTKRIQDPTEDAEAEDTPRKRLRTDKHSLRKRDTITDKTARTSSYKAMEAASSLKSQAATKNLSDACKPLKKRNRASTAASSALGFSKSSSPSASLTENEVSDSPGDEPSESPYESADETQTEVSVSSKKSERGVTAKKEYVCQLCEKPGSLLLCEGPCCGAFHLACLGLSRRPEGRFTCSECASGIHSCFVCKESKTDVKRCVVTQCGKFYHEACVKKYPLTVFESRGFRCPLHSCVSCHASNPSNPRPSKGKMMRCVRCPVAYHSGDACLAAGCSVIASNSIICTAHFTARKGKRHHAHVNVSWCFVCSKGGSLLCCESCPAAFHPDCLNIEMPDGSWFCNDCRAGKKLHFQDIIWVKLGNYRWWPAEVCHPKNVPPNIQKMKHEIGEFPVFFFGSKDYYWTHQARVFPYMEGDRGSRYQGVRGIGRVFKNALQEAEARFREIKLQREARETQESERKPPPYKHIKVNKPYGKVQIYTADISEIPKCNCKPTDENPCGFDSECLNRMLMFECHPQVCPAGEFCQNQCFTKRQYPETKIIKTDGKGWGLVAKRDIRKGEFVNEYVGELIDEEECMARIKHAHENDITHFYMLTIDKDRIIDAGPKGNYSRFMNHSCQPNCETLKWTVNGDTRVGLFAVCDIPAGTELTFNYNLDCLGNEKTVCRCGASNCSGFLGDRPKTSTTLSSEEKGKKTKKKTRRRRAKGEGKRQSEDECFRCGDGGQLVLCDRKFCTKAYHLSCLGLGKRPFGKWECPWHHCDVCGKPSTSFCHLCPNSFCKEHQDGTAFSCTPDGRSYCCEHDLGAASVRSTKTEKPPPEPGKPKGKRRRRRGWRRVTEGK", "format": "biochemical"}, "[2]": {"target": "Serine/threonine-protein kinase Chk1 (Homo sapiens, UniProt O14757)", "format": "functional"}, "[3]": {"target": "Serine/threonine-protein kinase pim-1 (Homo sapiens, UniProt P11309)", "sequence (P11309 whole entry)": "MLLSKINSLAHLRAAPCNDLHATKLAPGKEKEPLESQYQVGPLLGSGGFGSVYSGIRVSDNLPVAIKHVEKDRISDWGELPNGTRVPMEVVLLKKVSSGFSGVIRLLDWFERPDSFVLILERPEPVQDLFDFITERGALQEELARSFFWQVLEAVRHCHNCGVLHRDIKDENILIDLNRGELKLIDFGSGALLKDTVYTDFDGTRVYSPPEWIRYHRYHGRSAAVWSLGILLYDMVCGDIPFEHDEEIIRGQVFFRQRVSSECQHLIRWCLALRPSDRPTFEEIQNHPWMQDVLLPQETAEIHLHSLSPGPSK", "format": "functional"}, "[4]": {"target": "High affinity nerve growth factor receptor (Homo sapiens, UniProt P04629)", "format": "functional"}, "[5]": {"target": "Death-associated protein kinase 3 (Homo sapiens, UniProt O43293)", "sequence (O43293 whole entry)": "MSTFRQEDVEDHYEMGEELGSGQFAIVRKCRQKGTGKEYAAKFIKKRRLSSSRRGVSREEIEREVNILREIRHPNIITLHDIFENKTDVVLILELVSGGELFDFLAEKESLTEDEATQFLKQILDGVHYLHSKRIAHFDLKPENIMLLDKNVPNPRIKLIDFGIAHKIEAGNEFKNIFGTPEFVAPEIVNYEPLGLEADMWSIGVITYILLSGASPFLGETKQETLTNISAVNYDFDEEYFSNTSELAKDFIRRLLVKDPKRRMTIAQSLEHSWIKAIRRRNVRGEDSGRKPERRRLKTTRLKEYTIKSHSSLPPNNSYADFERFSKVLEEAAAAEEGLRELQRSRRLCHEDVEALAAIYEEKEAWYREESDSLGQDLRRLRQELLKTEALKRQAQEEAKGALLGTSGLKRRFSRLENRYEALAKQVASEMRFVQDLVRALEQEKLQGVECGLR", "format": "functional"}, "[6]": {"target": "Mitogen-activated protein kinase kinase kinase kinase 2 (Homo sapiens, UniProt Q12851)", "format": "functional"}, "[7]": {"target": "Mitogen-activated protein kinase 9 (Homo sapiens, UniProt P45984)", "format": "functional"}, "[8]": {"target": "ALK tyrosine kinase receptor (Homo sapiens, UniProt Q9UM73)", "format": "functional"}, "[9]": {"target": "Leucine-rich repeat serine/threonine-protein kinase 2 (Homo sapiens, UniProt Q5S007)", "sequence (Q5S007 whole entry)": "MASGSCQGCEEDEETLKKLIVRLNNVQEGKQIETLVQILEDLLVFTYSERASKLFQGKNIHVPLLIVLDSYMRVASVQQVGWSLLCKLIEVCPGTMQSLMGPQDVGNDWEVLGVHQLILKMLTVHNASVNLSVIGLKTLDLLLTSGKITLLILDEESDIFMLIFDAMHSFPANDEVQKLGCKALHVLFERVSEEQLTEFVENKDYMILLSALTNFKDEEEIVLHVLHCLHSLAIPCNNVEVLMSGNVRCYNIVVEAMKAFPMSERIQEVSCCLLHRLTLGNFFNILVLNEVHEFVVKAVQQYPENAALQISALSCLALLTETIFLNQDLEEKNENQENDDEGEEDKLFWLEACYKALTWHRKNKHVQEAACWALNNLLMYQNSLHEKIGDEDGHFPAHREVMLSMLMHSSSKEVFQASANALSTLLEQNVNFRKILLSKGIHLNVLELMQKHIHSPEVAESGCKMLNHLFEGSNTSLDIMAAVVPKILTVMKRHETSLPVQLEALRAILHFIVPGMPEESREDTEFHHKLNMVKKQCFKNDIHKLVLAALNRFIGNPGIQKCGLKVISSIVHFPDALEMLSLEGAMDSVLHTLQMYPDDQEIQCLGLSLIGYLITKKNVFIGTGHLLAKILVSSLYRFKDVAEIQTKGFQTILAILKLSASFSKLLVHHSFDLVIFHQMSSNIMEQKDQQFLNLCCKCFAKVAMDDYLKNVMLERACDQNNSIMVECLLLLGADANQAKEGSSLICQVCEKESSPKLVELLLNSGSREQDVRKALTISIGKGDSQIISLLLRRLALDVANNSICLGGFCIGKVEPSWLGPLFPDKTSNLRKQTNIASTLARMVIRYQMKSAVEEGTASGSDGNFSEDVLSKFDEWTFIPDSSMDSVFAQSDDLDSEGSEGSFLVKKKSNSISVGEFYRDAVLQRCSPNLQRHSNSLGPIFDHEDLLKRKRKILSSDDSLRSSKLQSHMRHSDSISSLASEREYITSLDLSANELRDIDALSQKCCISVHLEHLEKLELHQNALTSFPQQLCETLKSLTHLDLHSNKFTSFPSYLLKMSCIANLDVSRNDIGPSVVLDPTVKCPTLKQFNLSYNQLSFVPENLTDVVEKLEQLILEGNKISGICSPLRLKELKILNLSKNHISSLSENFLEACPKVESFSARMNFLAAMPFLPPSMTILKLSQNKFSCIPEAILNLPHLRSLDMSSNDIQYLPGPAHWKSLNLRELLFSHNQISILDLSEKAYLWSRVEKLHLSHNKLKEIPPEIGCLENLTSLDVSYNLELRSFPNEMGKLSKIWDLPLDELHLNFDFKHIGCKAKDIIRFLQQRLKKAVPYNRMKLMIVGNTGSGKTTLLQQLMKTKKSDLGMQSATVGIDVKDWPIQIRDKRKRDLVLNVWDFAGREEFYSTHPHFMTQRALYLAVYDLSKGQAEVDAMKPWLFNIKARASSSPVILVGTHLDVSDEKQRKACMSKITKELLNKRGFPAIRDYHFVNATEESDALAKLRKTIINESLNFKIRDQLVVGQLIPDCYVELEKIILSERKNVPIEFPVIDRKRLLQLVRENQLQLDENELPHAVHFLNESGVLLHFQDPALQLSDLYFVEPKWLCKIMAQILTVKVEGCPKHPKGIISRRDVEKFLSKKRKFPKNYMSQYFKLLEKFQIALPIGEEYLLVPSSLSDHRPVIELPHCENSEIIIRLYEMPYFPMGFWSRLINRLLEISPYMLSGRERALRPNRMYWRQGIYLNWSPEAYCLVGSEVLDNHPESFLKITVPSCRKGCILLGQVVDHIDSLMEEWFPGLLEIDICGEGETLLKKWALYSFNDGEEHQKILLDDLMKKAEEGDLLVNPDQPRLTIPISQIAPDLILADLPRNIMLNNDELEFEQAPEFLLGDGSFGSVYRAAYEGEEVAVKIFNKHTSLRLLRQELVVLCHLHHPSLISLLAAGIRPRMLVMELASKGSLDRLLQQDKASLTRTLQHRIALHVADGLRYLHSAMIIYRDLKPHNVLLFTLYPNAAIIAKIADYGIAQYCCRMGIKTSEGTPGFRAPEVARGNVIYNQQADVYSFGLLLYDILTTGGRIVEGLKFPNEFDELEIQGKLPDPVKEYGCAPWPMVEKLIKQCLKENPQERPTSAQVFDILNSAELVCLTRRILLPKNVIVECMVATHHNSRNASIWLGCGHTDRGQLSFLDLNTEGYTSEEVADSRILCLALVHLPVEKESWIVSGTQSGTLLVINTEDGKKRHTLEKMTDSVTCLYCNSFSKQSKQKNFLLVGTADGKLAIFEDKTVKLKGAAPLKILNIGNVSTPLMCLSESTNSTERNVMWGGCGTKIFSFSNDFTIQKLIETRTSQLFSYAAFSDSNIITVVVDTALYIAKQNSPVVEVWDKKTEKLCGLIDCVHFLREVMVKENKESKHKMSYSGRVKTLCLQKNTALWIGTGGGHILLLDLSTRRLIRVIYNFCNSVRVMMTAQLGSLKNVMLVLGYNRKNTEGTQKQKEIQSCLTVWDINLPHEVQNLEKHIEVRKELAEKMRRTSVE", "format": "functional"}, "[10]": {"target": "Hepatocyte growth factor receptor (Homo sapiens, UniProt P08581)", "sequence (P08581 whole entry)": "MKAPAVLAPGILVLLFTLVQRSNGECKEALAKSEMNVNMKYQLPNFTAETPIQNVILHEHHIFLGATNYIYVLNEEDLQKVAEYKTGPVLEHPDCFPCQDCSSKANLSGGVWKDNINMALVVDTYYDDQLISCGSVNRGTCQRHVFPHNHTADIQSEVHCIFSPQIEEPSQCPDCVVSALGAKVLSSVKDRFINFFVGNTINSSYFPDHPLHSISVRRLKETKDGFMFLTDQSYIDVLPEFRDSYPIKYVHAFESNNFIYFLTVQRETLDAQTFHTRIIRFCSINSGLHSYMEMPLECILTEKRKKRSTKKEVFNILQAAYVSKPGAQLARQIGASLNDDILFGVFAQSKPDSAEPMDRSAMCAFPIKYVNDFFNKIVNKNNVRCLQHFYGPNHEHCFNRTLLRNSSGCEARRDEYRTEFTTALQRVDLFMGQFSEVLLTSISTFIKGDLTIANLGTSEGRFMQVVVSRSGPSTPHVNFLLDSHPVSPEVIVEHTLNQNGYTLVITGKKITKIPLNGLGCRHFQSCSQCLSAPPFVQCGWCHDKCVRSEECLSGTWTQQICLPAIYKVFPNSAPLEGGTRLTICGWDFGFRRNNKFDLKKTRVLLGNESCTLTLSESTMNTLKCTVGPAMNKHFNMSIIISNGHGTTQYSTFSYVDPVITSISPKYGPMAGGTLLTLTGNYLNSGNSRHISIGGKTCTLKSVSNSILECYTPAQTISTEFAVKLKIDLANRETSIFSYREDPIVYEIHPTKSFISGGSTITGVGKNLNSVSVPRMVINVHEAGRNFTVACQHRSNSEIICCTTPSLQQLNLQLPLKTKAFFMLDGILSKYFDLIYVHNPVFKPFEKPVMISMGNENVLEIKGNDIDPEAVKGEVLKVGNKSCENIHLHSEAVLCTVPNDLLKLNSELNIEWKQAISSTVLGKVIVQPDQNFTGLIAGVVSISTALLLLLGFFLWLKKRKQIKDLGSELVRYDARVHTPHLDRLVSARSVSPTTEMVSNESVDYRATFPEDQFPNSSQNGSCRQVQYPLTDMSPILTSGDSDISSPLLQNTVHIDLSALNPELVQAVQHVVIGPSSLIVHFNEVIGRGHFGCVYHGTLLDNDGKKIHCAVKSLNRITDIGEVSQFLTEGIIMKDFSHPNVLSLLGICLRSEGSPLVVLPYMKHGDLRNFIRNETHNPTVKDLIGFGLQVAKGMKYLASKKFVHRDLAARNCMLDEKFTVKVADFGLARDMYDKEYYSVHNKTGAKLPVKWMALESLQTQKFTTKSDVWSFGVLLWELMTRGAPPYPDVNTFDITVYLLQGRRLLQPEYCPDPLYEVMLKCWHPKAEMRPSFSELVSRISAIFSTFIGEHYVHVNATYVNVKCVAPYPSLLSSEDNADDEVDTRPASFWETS", "format": "functional"}, "[11]": {"target": "Cyclin-dependent kinase 7 (Homo sapiens, UniProt P50613)", "sequence (P50613 whole entry)": "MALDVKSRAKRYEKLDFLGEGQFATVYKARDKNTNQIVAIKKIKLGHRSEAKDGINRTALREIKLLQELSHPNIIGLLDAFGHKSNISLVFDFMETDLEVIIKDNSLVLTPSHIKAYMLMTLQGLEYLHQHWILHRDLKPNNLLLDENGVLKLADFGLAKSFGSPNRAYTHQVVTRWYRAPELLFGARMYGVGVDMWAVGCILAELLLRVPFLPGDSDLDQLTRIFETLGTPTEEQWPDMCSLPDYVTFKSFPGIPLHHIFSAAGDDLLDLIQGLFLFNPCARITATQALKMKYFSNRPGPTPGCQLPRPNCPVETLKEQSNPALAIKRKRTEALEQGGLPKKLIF", "format": "functional"}}, "note": "Calls of active or inactive are those of the source."}
{"compound": "CC(C)(C)c1cc[n+](C2=C([N-]S(=O)(=O)c3cccs3)C(=O)c3ccccc3C2=O)cc1", "values": [{"measurement": "AC50", "setting": "[1]", "result": "3180 nM (active)"}]}
{"compound": "Cc1ccc(F)c(NC(=O)Nc2ccc(-c3cccc4[nH]nc(N)c34)cc2)c1", "note": "[LINIFANIB]", "values": [{"measurement": "Ki", "setting": "[2]", "result": "> 3160 nM (inactive)"}, {"measurement": "Ki", "setting": "[3]", "result": "> 6310 nM (inactive)"}, {"measurement": "Ki", "setting": "[4]", "result": "> 3160 nM (inactive)"}]}
{"compound": "COc1c(-c2nc3ccccc3[nH]2)c(O)cc2oc(C)cc(=O)c12", "values": [{"measurement": "Ki", "setting": "[2]", "result": "39.8 nM (active)"}, {"measurement": "Ki", "setting": "[5]", "result": "2510 nM (active)"}, {"measurement": "Ki", "setting": "[6]", "result": "501 nM (active)"}, {"measurement": "Ki", "setting": "[7]", "result": "2510 nM (active)"}, {"measurement": "Ki", "setting": "[8]", "result": "1260 nM (active)"}, {"measurement": "Ki", "setting": "[9]", "result": "794 nM (active)"}, {"measurement": "Ki", "setting": "[10]", "result": "126 nM (active)"}, {"measurement": "Ki", "setting": "[3]", "result": "398 nM (active)"}, {"measurement": "Ki", "setting": "[4]", "result": "398 nM (active)"}, {"measurement": "Ki", "setting": "[11]", "result": "501 nM (active)"}]}
{"compound": "COC(=O)c1c(N)nc2ccccn12", "values": [{"measurement": "Ki", "setting": "[5]", "result": "50100 nM (active)"}, {"measurement": "Ki", "setting": "[6]", "result": "50100 nM (active)"}, {"measurement": "Ki", "setting": "[7]", "result": "31600 nM (active)"}, {"measurement": "Ki", "setting": "[8]", "result": "25100 nM (active)"}, {"measurement": "Ki", "setting": "[9]", "result": "2510 nM (active)"}, {"measurement": "Ki", "setting": "[10]", "result": "79400 nM (active)"}, {"measurement": "Ki", "setting": "[11]", "result": "63100 nM (active)"}]}
{"compound": "O=C1/C(=C\\c2cccc(O)c2O)SC(=S)N1Cc1ccccc1", "values": [{"measurement": "AC50", "setting": "[1]", "result": "1260 nM (active)"}]}
